# Source: patent US20220324835A1 (Nurix Therapeutics, Inc., priority 2018, published 2022)
# Legend:
# T-cell [1] = experiment: CD25 cell surface staining on T-cells co-stimulated with anti-CD3 and anti-CD28 antibody (Biological Example 2); format: cell-based, human; conditions: Homo sapiens, T-cell; for fold induction at 4 µM: 4 μM Cbl-b inhibitor
# Description: (§1) Methods for experimentally determining increased T-cell activation, increased T-cell proliferation, decreased T-cell exhaustion, and/or decreased T-cell tolerance are well known in the art.
# (§2) Modulation of activity of an immune cell, such as a T-cell, a B cell or a NK cell can be measured by determining a baseline value for a parameter of interest (e.g., cytokine secretion). […] A reference value then is obtained for T-cell activation after contacting or administering said Cbl-b inhibitor. The reference value is compared to the baseline value in order to determine the amount of T-cell activation due to contact or administration of the Cbl-b inhibitor or composition thereof. […] Immune cell activation can be assessed by measuring biological markers of activation such as increased cytokine secretion, increased cell surface expression of activation markers (e.g., cell surface markers), or increased phosphorylation of proteins in a downstream signaling pathway. The fold over baseline value that indicates immune cell activation can be determined for the parameter being tested and the conditions under which the immune cell were treated. For example, for measuring T-cell activation, a baseline value can be obtained from T-cells stimulated with anti-CD3 antibody in combination with anti-CD28 antibody, wherein the cells are not incubated with a Cbl-b inhibitor. […] A positive response for immune cell activation can then be determined by the obtained reference value. […]
# T-cell [2] = experiment: IL-2 secretion from T-cells stimulated with anti-CD3 antibody alone (Biological Example 2); format: cell-based, human; conditions: T-cell; for fold induction at 8 µM: 8 μM Cbl-b inhibitor
# Description: as §1
# (§3) Modulation of activity of an immune cell, such as a T-cell, a B cell or a NK cell can be measured by determining a baseline value for a parameter of interest (e.g., cytokine secretion). […] A reference value then is obtained for T-cell activation after contacting or administering said Cbl-b inhibitor. The reference value is compared to the baseline value in order to determine the amount of T-cell activation due to contact or administration of the Cbl-b inhibitor or composition thereof. […] Immune cell activation can be assessed by measuring biological markers of activation such as increased cytokine secretion, increased cell surface expression of activation markers (e.g., cell surface markers), or increased phosphorylation of proteins in a downstream signaling pathway. The fold over baseline value that indicates immune cell activation can be determined for the parameter being tested and the conditions under which the immune cell were treated. For example, for measuring T-cell activation, a baseline value can be obtained from T-cells stimulated with anti-CD3 antibody in combination with anti-CD28 antibody, wherein the cells are not incubated with a Cbl-b inhibitor. […] A positive response for immune cell activation can then be determined by the obtained reference value.
# (§4) In some embodiments, a baseline value can be obtained from T-cells stimulated with anti-CD3 antibody alone, wherein the cells are not incubated with a Cbl-b inhibitor. In some embodiments, a positive response for T-cell activation as measured by cytokine secretion (e.g., IL-2 secretion) by T-cells stimulated with anti-CD3 antibody alone in the presence of a Cbl-b inhibitor is at least 0.1-fold over the baseline value for cytokine secretion (e.g., IL-2 secretion) obtained from T-cells stimulated with anti-CD3 antibody alone in the absence of a Cbl-b inhibitor. In some embodiments, a positive response for T-cell activation as measured by surface marker expression (e.g., CD25 surface marker staining) by T-cells stimulated with anti-CD3 antibody alone in the presence of a Cbl-b inhibitor is at least 0.6-fold over the baseline value for surface marker expression (e.g., CD25 surface marker staining) obtained from T-cells stimulated with anti-CD3 antibody alone in the absence of a Cbl-b inhibitor.
# T-cell [3] = experiment: IL-2 secretion from T-cells co-stimulated with anti-CD3 and anti-CD28 antibody (Biological Example 2); format: cell-based, human; conditions: Homo sapiens, T-cell; for fold induction at 4 µM: 4 μM Cbl-b inhibitor
# Description: as §1, §2
# Cbl-b [4] = target: T1, Cbl-b (Homo sapiens, UniProt Q13191); experiment: Cbl-b activity assay (Cbl-b inhibition assay), TR-FRET of Cbl-b interaction with UbcH5B-Ub; format: biochemical; conditions: assay buffer with 100 mM NaCl, 60 nM Src kinase; read-out: Cbl-b activity IC50
# T1 sequence (Q13191 36-427): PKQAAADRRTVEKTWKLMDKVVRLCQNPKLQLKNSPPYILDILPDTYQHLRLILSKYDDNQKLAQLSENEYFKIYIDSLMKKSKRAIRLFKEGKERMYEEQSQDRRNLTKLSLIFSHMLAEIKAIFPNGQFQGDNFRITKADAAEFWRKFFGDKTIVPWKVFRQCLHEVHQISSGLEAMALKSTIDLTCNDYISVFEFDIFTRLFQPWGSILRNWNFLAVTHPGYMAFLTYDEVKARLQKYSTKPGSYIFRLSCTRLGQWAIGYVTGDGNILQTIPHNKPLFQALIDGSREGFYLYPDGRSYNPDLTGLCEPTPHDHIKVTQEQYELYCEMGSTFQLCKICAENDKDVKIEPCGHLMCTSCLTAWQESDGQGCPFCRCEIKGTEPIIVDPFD
# Procedure, shortened: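 UbcH5B (C85K) conjugated to N-terminally Bodipy-Fluorescein-labeled ubiquitin served as the fluorescent partner. After compound preincubation, Src kinase (60 nM) with 1 mM ATP and 5 mM MgCl2 (final) was added for 1.5 h, followed by a further 1 h incubation. Some values were obtained with 50 mM NaCl and 30 nM Src.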
# T-cell [5] = experiment: CD25 cell surface staining on T-cells stimulated with anti-CD3 antibody alone (Biological Example 2); format: cell-based, human; conditions: T-cell; for fold induction at 8 µM: 8 μM Cbl-b inhibitor
# Description: as §1, §3, §4
# Cbl-b [6] = target: T1, Cbl-b; experiment: Cbl-b inhibition assay (Cbl-b activity assay, FRET, Biological Example 1; 100 mM NaCl, 60 nM Src kinase); format: biochemical; conditions: upper bound stated in text lists; read-out: IC50 values in the Cbl-b inhibition assay of Biological Example 1
# Procedure, shortened: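 Steps: Src kinase phosphorylates N-terminal biotinylated Avi-tagged Cbl-b; phosphorylated Cbl-b binds Bodipy-fluorescein ubiquitin-loaded UbcH5B; streptavidin-terbium on Cbl-b sits close to the fluorescein label, producing FRET. Inhibitors block UbcH5B-Ub binding.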
# [7] = fold change over baseline, 0.3 μM Cbl-b inhibitor, primary human total T-cells, read-out: CD25 staining Anti-CD3/Anti-CD28 stimulation
# [8] = fold change over baseline, 1 μM Cbl-b inhibitor, primary human total T-cells, read-out: CD25 staining Anti-CD3/Anti-CD28 stimulation
# [9] = fold change over baseline, primary human total T-cells, read-out: CD25 staining Anti-CD3/Anti-CD28 stimulation
# [10] = fold change over baseline, 1 μM Cbl-b inhibitor, primary human total T-cells, read-out: IL-2 secretion Anti-CD3 stimulation
# [11] = fold change over baseline, primary human total T-cells, read-out: IL-2 secretion Anti-CD3 stimulation
# [12] = fold change over baseline, 0.3 μM Cbl-b inhibitor, primary human total T-cells, read-out: IL-2 secretion Anti-CD3/Anti-CD28 stimulation
# [13] = fold change over baseline, 1 μM Cbl-b inhibitor, primary human total T-cells, read-out: IL-2 secretion Anti-CD3/Anti-CD28 stimulation
# [14] = fold change over baseline, primary human total T-cells, read-out: IL-2 secretion Anti-CD3/Anti-CD28 stimulation
# [15] = fold change over baseline, 1 μM Cbl-b inhibitor, primary human total T-cells, read-out: CD25 staining Anti-CD3 stimulation
# [16] = fold change over baseline, primary human total T-cells, read-out: CD25 staining Anti-CD3 stimulation
# [17] = read-out: CD25 staining, Anti-CD3/Anti-CD28 stimulation, fold change over baseline
# [18] = read-out: IL-2 secretion, Anti-CD3/Anti-CD28 stimulation, fold change over baseline
SMILES,IC50 (Cbl-b [4]) [nM],IC50 (Cbl-b [6]) [nM],fold induction at 0.3 µM (T-cell [1]; [7]),fold induction at 1 µM (T-cell [1]; [8]),fold induction at 4 µM (T-cell [1]; [9]),fold induction at 1 µM (T-cell [2]; [10]),fold induction at 8 µM (T-cell [2]; [11]),fold induction at 0.3 µM (T-cell [3]; [12]),fold induction at 1 µM (T-cell [3]; [13]),fold induction at 4 µM (T-cell [3]; [14]),fold induction at 1 µM (T-cell [5]; [15]),fold induction at 8 µM (T-cell [5]; [16]),other results
"Cn1cnnc1CC1(c2cccc(NC(=O)c3cc(CN4CC[C@H](F)C4)nc(C(F)(F)F)n3)c2)COC1 [Example 699, (S)-6-((3-fluoropyrrolidin-1-yl)methyl)-N-(3-(3-((4-methyl-4H-1,2,4-triazol-3-yl)methyl)oxetan-3-yl)phenyl)-2-(trifluoromethyl)pyrimidine-4-carboxamide]",< 100,≤ 100,,,,,,,,,,,"fold induction at 0.3 µM (T-cell [1]; 0.3 μM Cbl-b inhibitor, fold change over baseline (anti-CD3/anti-CD28 stimulated T-cells without inhibitor), read-out: CD25 staining Anti-CD3/Anti-CD28 stimulation): 1.01 to 1.3; fold induction at 1 µM (T-cell [1]; 1 μM Cbl-b inhibitor, fold change over baseline (anti-CD3/anti-CD28 stimulated T-cells without inhibitor), read-out: CD25 staining Anti-CD3/Anti-CD28 stimulation): 1.01 to 1.3; fold induction at 1 µM (T-cell [2]; Homo sapiens, 1 μM Cbl-b inhibitor, fold change over baseline (anti-CD3/anti-CD28 stimulated T-cells without inhibitor), read-out: IL-2 secretion Anti-CD3 stimulation): 0.051 to 0.1; fold induction at 0.3 µM (T-cell [3]; 0.3 μM Cbl-b inhibitor, fold change over baseline (anti-CD3/anti-CD28 stimulated T-cells without inhibitor), read-out: IL-2 secretion Anti-CD3/Anti-CD28 stimulation): 1.01 to 2.5; fold induction at 1 µM (T-cell [3]; 1 μM Cbl-b inhibitor, fold change over baseline (anti-CD3/anti-CD28 stimulated T-cells without inhibitor), read-out: IL-2 secretion Anti-CD3/Anti-CD28 stimulation): 2.51 to 5; fold induction at 1 µM (T-cell [5]; Homo sapiens, 1 μM Cbl-b inhibitor, fold change over baseline (anti-CD3/anti-CD28 stimulated T-cells without inhibitor), read-out: CD25 staining Anti-CD3 stimulation): 0.801 to 1"
"Cn1cnnc1CC(C)(C)c1cccc(NC(=O)c2cccc(C(F)(F)F)n2)c1 [Compound 284, N-(3-(2-methyl-1-(4-methyl-4H-1,2,4-triazol-3-yl)propan-2-yl)phenyl)-6-(trifluoromethyl)picolinamide]",< 100,≤ 100,1.01 to 1.3,1.01 to 1.3,1.31 to 1.5,> 0.201,> 0.201,1.01 to 2.5,2.51 to 5,> 7.5,0.801 to 1,> 1,
"CN1C2CCC1CN(c1cc3c(c(C(F)(F)F)c1)CN(c1cccc(C4(Cc5nncn5C)COC4)c1)C3=O)C2 [Compound 388, 2-(3-(3-((4-Methyl-4H-1,2,4-triazol-3-yl)methyl)oxetan-3-yl)phenyl)-6-(8-methyl-3,8-diazabicyclo[3.2.1]octan-3-yl)-4-(trifluoromethyl)isoindolin-1-one]",< 100,≤ 100,,,,,,,,,,,"fold induction at 0.3 µM (T-cell [1]; [17]): 1.01 to 1.3; fold induction at 1 µM (T-cell [1]; [17]): 1.01 to 1.3; fold induction at 1 µM (T-cell [2]; Homo sapiens, read-out: IL-2 secretion, Anti-CD3 stimulation, fold change over baseline): 0.151 to 0.2; fold induction at 0.3 µM (T-cell [3]; [18]): 2.51 to 5; fold induction at 1 µM (T-cell [3]; [18]): 5 to 7.5; fold induction at 1 µM (T-cell [5]; Homo sapiens, read-out: CD25 staining, Anti-CD3 stimulation, fold change over baseline): > 1"
"C[C@H](Cc1nncn1C)c1cccc(NC(=O)c2cc3cc(N4CCN(C)C(=O)C4)ccc3cn2)c1 [Compound 209, (R)-6-(4-methyl-3-oxopiperazin-1-yl)-N-(3-(1-(4-methyl-4H-1,2,4-triazol-3-yl)propan-2-yl)phenyl)isoquinoline-3-carboxamide 2,2,2-trifluoroacetate]",< 100,≤ 100,1.31 to 1.5,1.31 to 1.5,1.51 to 1.75,> 0.201,> 0.201,5 to 7.5,5 to 7.5,> 7.5,< 0.6,> 1,
